In article PMC12212627, “Machine Learning-Based Virtual Screening of Antibacterial Agents against Methicillin-Susceptible and Resistant Staphylococcus aureus” (Journal of Chemical Information and Modeling, 2024):
In brackets after ≈: the same amount, converted by molar mass.

Key:
MSSA and MRSA strains = test: Broth microdilution, results summed up over MSSA and MRSA strains; assay type: cell-based, Staphylococcus aureus; conditions: for MIC: Staphylococcus aureus, span over the strains evaluated, read-out: MIC values against MSSA and all MRSA strains
Description: (§1) E. coli (ATCC n° […]) – a TEM-1 β-lactamase producing strain, S. aureus (ATCC n° 29213) – herein referred to as MSSA, MRSA (ATCC n° 43300), and two clinical strains of MRSA (n° 5749 and 6154) were used in the biological assays. The antibacterial activity and minimal inhibitory concentration (MIC) of the screened compounds were evaluated with the broth microdilution method in 96-well microplates, according to the Clinical and Laboratory Standards Institute (CLSI) protocol. Initially, compounds were evaluated in a screening assay to identify promising hits. The compounds were dissolved in dimethyl sulfoxide (DMSO) and then diluted in Mueller Hinton broth (MHB; Oxoid, Thermo Scientific, U.K.) to a concentration of 200 μM. After the addition of 100 μL to each well, the same volume of bacterial suspension containing 10^5 CFU/mL was added to each of the previous solutions, resulting in a final compound concentration of 100 μM. A viability control (bacterial suspension only), inhibition controls (MHB containing five times the MIC of penicillin G for MSSA, vancomycin for MRSA strains, and streptomycin for E. coli), a sterility control (medium only), and a vehicle control (DMSO 2% v/v) were included in each assay microplate. After 24 h of incubation at 37 °C, the microplates were visually inspected for inhibition of bacterial growth, and the absorbance at 600 nm of each well was read using a microplate reader spectrophotometer (VersaMax, Molecular Devices, CA). The percentage of growth inhibition was calculated as the percentage of growth reduction compared with the vehicle control. Wells showing no visual bacterial growth (no turbidity) were considered hits. The MIC of the promising compounds in the initial screening were tested as previously described, with a serial dilution of each compound (100–1.56 μM). All conditions were tested in triplicate from at least three independent assays.

[1] = tested on: S. aureus (ATCC n° 29213), MSSA; test: Broth microdilution (CLSI): screening at 100 μM and MIC, MSSA; assay type: cell-based, Staphylococcus aureus; conditions: for MIC: broth microdilution, 24 h, 37 °C; for % of growth inhibition, MSSA (ATCC 29123): at the concentration (MIC)
Description: as §1

[2] = Cytotoxicity, colorimetric MTT assay; assay type: cell-based; conditions: African green monkey, Vero (ATCC CCL-81) cells, 72 h incubation
Description: As for the cytotoxic concentration of 50% (CC50) determination, the Vero (ATCC CCL-81) cell line was cultured in Eagle’s Minimum Essential Medium (MEM) (Cultilab, Brazil). The medium was supplemented with 5% fetal bovine serum (FBS) (Cultilab, Brazil), in addition to 100 IU/mL penicillin (Cellofarm, Brazil), 100 μg/mL streptomycin (Merck, Germany), and 0.25 μg/mL amphotericin B (Cultilab, Brazil). Cells were seeded in 96-well microplates (4.0 × 10^4 cells per well) and incubated at 37 °C and 5% CO2 atmosphere. After 24 h of incubation, 200 μL of fresh medium containing a serial dilution of the compounds (100–1.56 μM) was added to the plates. Serial dilutions of DMSO were used as vehicle controls. After 72 h of incubation under the same conditions, 100 μL of 3-(4,5-dimethylthiazol-2-yl)–2,5-diphenyltetrazolium bromide (MTT) in MEM (0.5 mg/mL) was added to each well. After 3 h of incubation with MTT (ThermoFischer Scientific), the medium was removed, and 100 μL of DMSO was added to each well to solubilize the formazan crystals. After a brief incubation under shaking for 20 min, the absorbance at 570 nm of each well was read using a spectrophotometer (VersaMax, Molecular Devices). The percentages of inhibition of cell viability were calculated by using the vehicle control. The cytotoxic concentration of 50% (CC50) is defined as the lowest concentration of a given compound that can reduce the viability of cultured cells by 50%. Posteriorly, the selectivity index (SI), that is, the ratio between the CC50 and MIC values of each active compound, was calculated. All conditions were tested in triplicate and at least two independent assays. The overall procedures applied in this work are illustrated in Figure .

MRSA (ATCC n° 43300) = test: Broth microdilution (CLSI): screening at 100 μM and MIC, MRSA reference strain; assay type: cell-based, Staphylococcus aureus; conditions: for MIC: broth microdilution, 24 h, 37 °C; for % of growth inhibition, MRSA (ATCC 43300): at the concentration given (MIC or 100 μM where MIC >100)
Description: as §1

[3] = tested on: clinical strain of MRSA n° 6154; test: Broth microdilution (CLSI): screening at 100 μM and MIC, MRSA clinical strain 6154; assay type: cell-based, Staphylococcus aureus; conditions: for % of growth inhibition, MRSA (6154): at the concentration given (MIC or 100 μM where MIC >100)
Description: as §1

[4] = tested on: clinical strain of MRSA n° 5749; test: Broth microdilution (CLSI): screening at 100 μM and MIC, MRSA clinical strain 5749; assay type: cell-based, Staphylococcus aureus; conditions: for MIC / MIC, MRSA (5749): broth microdilution, 24 h, 37 °C; for % of growth inhibition, MRSA (5749): at the concentration given (MIC or 100 μM where MIC >100)
Description: as §1

[5] = tested on: E. coli (ATCC 35218), TEM-1 β-lactamase producing strain; test: Broth microdilution (CLSI): screening at 100 μM and MIC, E. coli; assay type: cell-based
Description: as §1

[6] = pharmacokinetic properties already determined; cited from earlier work
[7] = Staphylococcus aureus, ATCC 29123 / MSSA
[8] = Staphylococcus aureus, ATCC 43300 / MRSA
[9] = Staphylococcus aureus, MRSA, broth microdilution, 24 h, 37 °C
[10] = broth microdilution, 24 h, 37 °C

Row | SMILES | MIC (MSSA and MRSA strains) | MIC [1, 7] | % of growth inhibition, MSSA (ATCC 29123) [1] | CC50 at 72 h [2] | MIC (MRSA (ATCC n° 43300); [8]) | % of growth inhibition, MRSA (ATCC 43300) (MRSA (ATCC n° 43300)) | MIC [3, 9] | % of growth inhibition, MRSA (6154) [3] | MIC ([4]; Staphylococcus aureus, MRSA) | % of growth inhibition, MRSA (5749) [4] | MIC, E. coli (ATCC 35218) [5, 10] | MIC, MRSA (5749) [4] | other results
1 | C#CCOC1=CC(=O)c2ccccc2C1=O [Compound 3, 2-[(prop-2-yn-1-yl)oxy]-1,4-naphtoquinone] | 50 µM (≈ 10.6 µg/mL) | 50 µM (≈ 10.6 µg/mL) | 96.52% | 21.2 ± 8.89 µM | 50 µM (≈ 10.6 µg/mL) | > 99.9% | 50 µM (≈ 10.6 µg/mL) | > 99.9% | 50 µM (≈ 10.6 µg/mL) | > 99.9% | − |  | 
2 | CC(=O)O[C@@H]1[C@H](OC(C)=O)[C@H](C)O[C@H](n2cc(COC3=CC(=O)c4ccccc4C3=O)nn2)[C@H]1OC(C)=O [Compound 1, 2-[1-(2,3,4-tri-O-acetyl-6-deoxy-β-L-galactopyranosyl)-1,2,3-triazol-4-(methyl)oxy]-1,4-naphtoquinone] | ≥ 100 µM | 100 µM (≈ 52.7 µg/mL) | 99.60% | 33.8 ± 3.44 µM | > 100 µM | 70.02% | > 100 µM | 50.60% | > 100 µM | 41.76% | − |  | 
3 | C=C/C(C)=C\C[C@]1(C)[C@H](C)C[C@H](O)[C@@]23C(=C[C@H](OC(=O)CCC)C[C@@H]12)[C@@H](OC(C)=O)O[C@H]3OC(C)=O [Compound 5, [(1S,3R,5R,6aS,7R,8R,10S,10aS)-1,3-diacetyloxy-10-hydroxy-7,8-dimethyl-7-[(2Z)-3-methylpenta-2,4-dienyl]-1,3,5,6,6a,8,9,10-octahydrobenzo[d][2]benzofuran-5-yl] butanoate] |  | 200 µM (≈ 101 µg/mL) | 96.43% |  | 100 µM (≈ 50.5 µg/mL) | > 99.9% | 100 µM (≈ 50.5 µg/mL) | > 99.9% |  |  | − | − | inhibition at 100 µM ([1]; Staphylococcus aureus, ATCC 29123 / MSSA, at 100 μM, below the MIC, read-out: % of growth inhibition, MSSA (ATCC 29123), second line): 27.4%; cell permeability [6]: high; stability in the gastrointestinal tract [6]: degradation in the gastrointestinal tract
4 | O=C(NCCCOCCCNC(=O)c1ccc(-c2ccc(Br)cc2)o1)c1ccc(-c2ccc(Br)cc2)o1 [Compound 6, N,N′-(oxybis(propane-3,1-diyl))-bis(5-(4-bromophenyl)furan-2-carboxamide)] | 50 to 100 µM (≈ 31.5 to 63 µg/mL) | 50 µM (≈ 31.5 µg/mL) | > 99.9% | 43.4 ± 4.66 µM | 100 µM (≈ 63 µg/mL) | > 99.9% | 100 µM (≈ 63 µg/mL) | > 99.9% | 100 µM (≈ 63 µg/mL) | > 99.9% | − |  | inhibition at 50 µM (MRSA (ATCC n° 43300); Staphylococcus aureus, ATCC 43300 / MRSA, at 50 μM, below the MIC, read-out: % of growth inhibition, MRSA (ATCC 43300), second line): 85.3%; inhibition at 50 µM ([3]; Staphylococcus aureus, MRSA, at 50 μM, below the MIC, read-out: % of growth inhibition, MRSA (6154), second line): 78.4%; inhibition at 50 µM ([4]; Staphylococcus aureus, MRSA, at 50 μM, below the MIC, read-out: % of growth inhibition, MRSA (5749), second line): 73.5%
5 | O=C1C=C(OCc2cn(-c3ccccc3)nn2)C(=O)c2ccccc21 [S12] |  |  |  |  |  |  |  |  |  |  |  |  | antibacterial activity (in words) (MSSA and MRSA strains; tested compounds of Supporting Table S4, 100 μM): no antibacterial activity; Percentage of growth inhibition MSSA (ATCC 29123) ([1]; at 100 uM, Table S4): 0%; Percentage of growth inhibition MRSA (ATCC 43300) (MRSA (ATCC n° 43300); at 100 uM, Table S4): 0%; Percentage of growth inhibition MRSA (6154) ([3]; at 100 uM, Table S4): 0%; Percentage of growth inhibition MRSA (5749) ([4]; at 100 uM, Table S4): 0%; Percentage of growth inhibition E. coli (ATCC 35218) ([5]; at 100 uM, Table S4): 0%
6 | Cc1ccc(OCC(N)COc2ccc(C)cc2)cc1 [Compound 4, 1,3-bis(4-methylphenoxy)propano-2-aminium chloride] |  | 50 µM | 97.80% | 19 ± 6.1 µM | 100 µM | 90.38% |  |  |  |  |  | − | MIC, MRSA (6154) [3, 10]: −; inhibition at 100 µM ([5]; Escherichia coli, ATCC35218, at 100 μM, read-out: inhibition in the initial screening, E. coli): 85.5%; MIC ([5]; Escherichia coli, ATCC35218, broth microdilution, 24 h, 37 °C): 100 µM; % of growth inhibition, E. coli (ATCC 35218) ([5]; at the concentration (MIC)): 87.0%
